According to patent US20070128217A1 (priority 2003, published 2007):

Columns and labels:
[1] = system: antibodies in sera from SARS patients (sera 1a, 1b, 2, 6, 37, 62, London, SARS-yellow, SARS-green); format: binding, human; set-up: Binding of serum 6 to linear peptides of protein X1 of SARS-CoV Urbani / Binding of serum 37 to linear peptides of protein X1 of SARS-CoV Urbani / Binding of serum 6 to looped/cyclic peptide (PEPSCAN-ELISA) / Binding of serum 37 to looped/cyclic peptide (PEPSCAN-ELISA) / Binding of serum 37 to looped/cyclic peptides of protein X1 of SARS-CoV Urbani / Binding of serum 6 to linear peptides of protein X2 / Binding of serum 37 to linear peptides of protein X2 / Binding of serum 37 to looped/cyclic peptides of protein X2 of SARS-CoV Urbani / Binding of serum 6 to linear peptides of protein M of SARS-CoV Urbani / Binding of serum 37 to linear peptides of protein M of SARS-CoV Urbani / Binding of serum 6 to looped/cyclic peptides of protein M of SARS-CoV Urbani / Binding of serum 37 to looped/cyclic peptides of protein M of SARS-CoV Urbani / Binding of serum 6 to linear peptides of protein X3 of SARS-CoV Urbani / Binding of serum 37 to linear peptides of protein X3 of SARS-CoV Urbani / Binding of serum 37 to looped/cyclic peptides of protein X3 of SARS-CoV Urbani / Binding of serum 6 to linear peptides of protein X4 of SARS-CoV Urbani / Binding of serum 37 to linear peptides of protein X4 of SARS-CoV Urbani / Binding of serum 37 to looped/cyclic peptides of protein X4 of SARS-CoV Urbani / Binding of serum 6 to linear peptides of protein X5 of SARS-CoV Urbani / Binding of serum 37 to linear peptides of protein X5 of SARS-CoV Urbani / Binding of serum 37 to looped/cyclic peptides of protein X5 of SARS-CoV Urbani / Binding of serum 6 to linear peptides of protein N of SARS-CoV Urbani / Binding of serum 37 to linear peptides of protein N of SARS-CoV Urbani / Binding of serum 6 to linear peptide (PEPSCAN-ELISA) / Binding of serum 1a to looped/cyclic peptides of protein N of SARS-CoV Urbani / Binding of serum 1b to looped/cyclic peptides of protein N of SARS-CoV Urbani / Binding of serum 2 to looped/cyclic peptides of protein N of SARS-CoV Urbani / Binding of serum 6 to looped/cyclic peptides of protein N of SARS-CoV Urbani / Binding of serum 37 to looped/cyclic peptides of protein N of SARS-CoV Urbani / Binding of serum 62 to looped/cyclic peptides of protein N of SARS-CoV Urbani / Binding of serum London to looped/cyclic peptides of protein N of SARS-CoV Urbani / Binding of serum SARS-green to looped/cyclic peptides of protein N of SARS-CoV Urbani: unit not given here
[2] = system: rabbit serum obtained by immunizing a rabbit with the SARS-CoV strain Frankfurt 1; format: binding; set-up: Binding of a rabbit serum to linear peptides / Binding of a rabbit serum to looped peptides / Rabbit serum linear peptides / Rabbit serum looped peptides / Binding of a rabbit serum to linear peptides of protein N of SARS-CoV Urbani (Rabbit serum linear peptides) / Binding of a rabbit serum to looped/cyclic peptides of protein N of SARS-CoV Urbani (Rabbit serum looped peptides): unit not given here
[3] = system: control sera (pooled serum of ten healthy LUMC hospital workers; commercial negative donor pooled serum from the Dutch bloodbank); format: binding, human; set-up: Binding of Control serum LUMC to linear peptides / Binding of Control serum Blood-bank to linear peptides / Binding of Control serum LUMC to looped peptides / Binding of Control Serum Blood-Bank to Looped peptides / Binding of Control serum LUMC to linear peptides of the protein M of SARS-CoV Urbani / Binding of Control serum Blood-bank to linear peptides of the protein M of SARS-CoV Urbani / Binding of Control serum LUMC to looped peptides of the protein M of SARS-CoV Urbani / Binding of Control Serum Blood-Bank to Looped peptides of the protein M of SARS-CoV Urbani: unit not given here

Sequence	Binding of Control Serum Blood-Bank to Looped peptides [3]	Binding of Control serum Blood-bank to linear peptides [3]	Binding of Control serum LUMC to linear peptides [3]	Binding of Control serum LUMC to looped peptides [3]	Binding of serum 1a to linear peptides of protein X1 of SARS-CoV Urbani [1]	Binding of serum 1a to looped/cyclic peptide (PEPSCAN-ELISA) [1]	Binding of serum 1b to linear peptides of protein X1 of SARS-CoV Urbani [1]	Binding of serum 1b to looped/cyclic peptide (PEPSCAN-ELISA) [1]	Binding of serum 2 to linear peptides of protein X1 of SARS-CoV Urbani [1]	Binding of serum 2 to looped/cyclic peptide (PEPSCAN-ELISA) [1]	Binding of serum 6 to linear peptides of protein X1 of SARS-CoV Urbani [1]	Binding of serum 6 to looped/cyclic peptide (PEPSCAN-ELISA) [1]	Binding of serum 37 to linear peptides of protein X1 of SARS-CoV Urbani [1]	Binding of serum 37 to looped/cyclic peptide (PEPSCAN-ELISA) [1]	Binding of serum 62 to linear peptides of protein X1 of SARS-CoV Urbani [1]	Binding of serum 62 to looped/cyclic peptide (PEPSCAN-ELISA) [1]	Binding of serum London to linear peptides of protein X1 of SARS-CoV Urbani [1]	Binding of serum London to looped/cyclic peptide (PEPSCAN-ELISA) [1]	Binding of serum SARS-green to linear peptides of protein X1 of SARS-CoV Urbani [1]	Binding of serum SARS-green to looped/cyclic peptide (PEPSCAN-ELISA) [1]	also measured
ALIARCWYLHEGHQT	0.4	0.6	0.4	0.1																	Binding of serum 1a to linear peptides of protein X5 of SARS-CoV Urbani [1]: 0.6; Binding of serum 1a to looped/cyclic peptides of protein X5 of SARS-CoV Urbani [1]: 0.6; Binding of serum 1b to linear peptides of protein X5 of SARS-CoV Urbani [1]: 0.5; Binding of serum 1b to looped/cyclic peptides of protein X5 of SARS-CoV Urbani [1]: 0.1; Binding of serum 2 to linear peptides of protein X5 of SARS-CoV Urbani [1]: 0.6; Binding of serum 2 to looped/cyclic peptides of protein X5 of SARS-CoV Urbani [1]: 0.5; Binding of serum 6 to linear peptides of protein X5 of SARS-CoV Urbani [1]: 0.5; Binding of serum 6 to looped/cyclic peptides of protein X5 of SARS-CoV Urbani [1]: 0.3; Binding of serum 37 to linear peptides of protein X5 of SARS-CoV Urbani [1]: 0.7; Binding of serum 37 to looped/cyclic peptides of protein X5 of SARS-CoV Urbani [1]: 0.4; Binding of serum 62 to linear peptides of protein X5 of SARS-CoV Urbani [1]: 0.7; Binding of serum 62 to looped/cyclic peptides of protein X5 of SARS-CoV Urbani [1]: 0.4; Binding of serum London to linear peptides of protein X5 of SARS-CoV Urbani [1]: 0.6; Binding of serum London to looped/cyclic peptides of protein X5 of SARS-CoV Urbani [1]: 0.1; Binding of serum SARS-green to linear peptides of protein X5 of SARS-CoV Urbani [1]: 0.7; Binding of serum SARS-green to looped/cyclic peptides of protein X5 of SARS-CoV Urbani [1]: 0.0; Binding of serum SARS-yellow to linear peptides of protein X5 of SARS-CoV Urbani [1]: 0.2; Binding of serum SARS-yellow to looped/cyclic peptides of protein X5 of SARS-CoV Urbani [1]: 0.0; Rabbit serum linear peptides [2]: 0.6; Rabbit serum looped peptides [2]: 0.0
ALIYFLQCINACRII	0.5	0.5	0.5	0.3	0.6	0.3	0.6	0.2	0.5	0.4	0.4	0.9	0.7	0.3	0.6	0.3	0.3	1.3	0.1	0.3	Binding of serum SARS-yellow to linear peptides of protein X1 of SARS-CoV Urbani [1]: 0.4; Binding of serum SARS-yellow to looped/cyclic peptide (PEPSCAN-ELISA) [1]: 0.1; Binding of a rabbit serum to linear peptides [2]: 0.7; Binding of a rabbit serum to looped peptides [2]: 0.6
ALNKRWQLALYKGFQ	0.9	0.6	0.6	0.8	0.7	0.8	0.6	0.6	0.5	0.7	0.5	0.6	0.6	0.6	0.5	0.7	0.2	0.3	0.2	0.4	Binding of serum SARS-yellow to linear peptides of protein X1 of SARS-CoV Urbani [1]: 0.4; Binding of serum SARS-yellow to looped/cyclic peptide (PEPSCAN-ELISA) [1]: 0.6; Recognition of the peptide by the rabbit serum [2]: recognized
ALTCTSTHFAFACAD	0.9	0.7	0.8	0.8																	Binding of serum 1a to linear peptides of protein X4 of SARS-CoV Urbani [1]: 0.8; Binding of serum 1a to looped/cyclic peptides of protein X4 of SARS-CoV Urbani [1]: 0.8; Binding of serum 1b to linear peptides of protein X4 of SARS-CoV Urbani [1]: 0.8; Binding of serum 1b to looped/cyclic peptides of protein X4 of SARS-CoV Urbani [1]: 0.7; Binding of serum 2 to linear peptides of protein X4 of SARS-CoV Urbani [1]: 0.5; Binding of serum 2 to looped/cyclic peptides of protein X4 of SARS-CoV Urbani [1]: 0.7; Binding of serum 6 to linear peptides of protein X4 of SARS-CoV Urbani [1]: 0.6; Binding of serum 6 to looped/cyclic peptides of protein X4 of SARS-CoV Urbani [1]: 0.7; Binding of serum 37 to linear peptides of protein X4 of SARS-CoV Urbani [1]: 0.9; Binding of serum 37 to looped/cyclic peptides of protein X4 of SARS-CoV Urbani [1]: 0.9; Binding of serum 62 to linear peptides of protein X4 of SARS-CoV Urbani [1]: 0.9; Binding of serum 62 to looped/cyclic peptides of protein X4 of SARS-CoV Urbani [1]: 0.9; Binding of serum London to linear peptides of protein X4 of SARS-CoV Urbani [1]: 0.8; Binding of serum London to looped/cyclic peptides of protein X4 of SARS-CoV Urbani [1]: 0.3; Binding of serum SARS-green to linear peptides of protein X4 of SARS-CoV Urbani [1]: 0.8; Binding of serum SARS-green to looped/cyclic peptides of protein X4 of SARS-CoV Urbani [1]: 0.8; Binding of serum SARS-yellow to linear peptides of protein X4 of SARS-CoV Urbani [1]: 0.7; Binding of serum SARS-yellow to looped/cyclic peptides of protein X4 of SARS-CoV Urbani [1]: 0.8; Rabbit serum linear peptides [2]: 0.6; Rabbit serum looped peptides [2]: 0.6
ALYKGFQFICNLLLL	0.5	0.6	0.5	0.5	0.6	0.4	0.5	0.3	0.4	0.3	0.4	1.3	0.5	0.4	0.5	0.4	0.2	1.4	0.2	0.2	Binding of serum SARS-yellow to linear peptides of protein X1 of SARS-CoV Urbani [1]: 0.5; Binding of serum SARS-yellow to looped/cyclic peptide (PEPSCAN-ELISA) [1]: 0.4; Binding of a rabbit serum to linear peptides [2]: 0.6; Binding of a rabbit serum to looped peptides [2]: 0.4
